Earlier results, collected in patent publication US12090168B2, “Glucose glycans for treating urea cycle disorders” (DSM Nutritional Products, LLC, priority 2017, dated 2024).

Conditions: administered in combination with lactulose

In the case of `CO[C@H]1/C=C/O[C@@]2(C)Oc3c(C)c(O)c4c(O)c(c5c(nc6cc(C)ccn65)c4c3C2=O)NC(=O)/C(C)=C\C=C\[C@H](C)[C@H](O)[C@@H](C)[C@@H](O)[C@@H](C)[C@H](OC(C)=O)[C@@H]1C` [rifaximin], the “reduction of episodes of OHE” value is listed as “approximately 50%”.
